Laboratory results taken from patent US11834453B2, “Substituted pyrimido[5,4-d]pyrimidines as HER2 inhibitors” (Array BioPharma Inc., priority 2020, dated 2023).
pIC50: −log10 of the molar value. Where two headings read alike, the source gives them in different places.

Legend:
[1] = biological target: ErbB2 insYVMA (HER2-YVMA, SEQ ID NO: 2) (Homo sapiens, UniProt P04626, INS775YVMA/P1170A); assay: biochemical; settings: ErbB2 insYVMA enzyme assay; for pIC50: read-out: Assay 1 IC50
ErbB2 WT = ErbB2 WT (Homo sapiens (Human), UniProt P04626); assay: ErbB enzyme assay (CisBio HTRF KinEASE-TK), Assay 2; type: biochemical
Outline: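 ErbB2 phosphorylates 250 nM biotin-TK substrate at 1 mM ATP in 25 mM HEPES pH 7.4, 10 mM MgCl2, 0.01% Triton X-100 and 2% DMSO, for 30 min at 22 °C. Product is detected by HTRF with Sa-XL665 and TK-Ab-Cryptate. Percent of control is set by DMSO-only wells and pre-quenched wells.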

EGFR wild type (EGFR WT) = EGFR wild type (EGFR WT) (Homo sapiens (Human), UniProt P00533); assay: Cellular phosphorylation assay, EGF-stimulated EGFR phosphorylation in engineered NIH 3T3 cells, Phospho-EGFR DuoSet IC ELISA, Assay 5; type: cell-based
Experimental: NIH 3T3 cells were engineered to express EGFR wild type (EGFR WT; Assay 5, no footnote) with constructs obtained from GenScript and grown in DMEM supplemented with 10% fetal bovine serum and 15 μg/ml blasticidin. Cells were plated in 96-well plates at 20,000 cells/well and allowed to attach overnight at 37° C./5% CO2. Serially diluted compounds were added to the plates for 1 hour at 37° C./5% CO2. EGFR WT cells were stimulated with 100 ng/ml rEGF for an additional 10 minutes at 37° C./5% CO2. After compound incubation, medium was removed from the cells, which were then lysed in 100 μL/well lysis buffer according to the manufacturer's protocol (R&D Systems, DYC1095, Human Phospho-EGFR DuoSet IC ELISA). Same protocol was followed to determine the total levels of phospho-EGFR by measuring the optical density of each well using a VersaMax microplate reader. Curves were then generated and IC50 values calculated.

[2] = biological target: ErbB2 with Exon 20 YVMA insertion (HER2-YVMA) (Homo sapiens (Human), UniProt P04626, INS775YVMA); assay: Cellular phosphorylation assay, constitutive ErbB2 phosphorylation (Y1196) in engineered NIH 3T3 cells, Assay 4; type: cell-based
Outline: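 Engineered NIH 3T3 cells expressing HER2-YVMA treated with compounds 1 h at 37 °C, then formaldehyde-fixed and methanol-permeabilized. pErbB2 Y1196 detected by in-cell infrared immunofluorescence, normalized to GAPDH. IC50 from the normalized curves.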

EGFR = EGFR (Homo sapiens (Human), UniProt P00533); assay: ErbB enzyme assay (CisBio HTRF KinEASE-TK), Assay 3; type: biochemical
Outline: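 Kinase + 250 nM biotin TK-substrate, 1 mM ATP, cpd (3-fold dil.), HEPES pH 7.4/10 mM MgCl2/0.01% Triton/2% DMSO; 30 min 22 °C. Quench w/ Sa-XL665 + TK-Ab-Cryptate, 1 h, HTRF. IC50 = 50 POC on 4PL fit.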

Chain of ErbB2 insYVMA (HER2-YVMA, SEQ ID NO: 2) (P04626 with tags, fused parts or gaps INS775YVMA/P1170A limits assumed): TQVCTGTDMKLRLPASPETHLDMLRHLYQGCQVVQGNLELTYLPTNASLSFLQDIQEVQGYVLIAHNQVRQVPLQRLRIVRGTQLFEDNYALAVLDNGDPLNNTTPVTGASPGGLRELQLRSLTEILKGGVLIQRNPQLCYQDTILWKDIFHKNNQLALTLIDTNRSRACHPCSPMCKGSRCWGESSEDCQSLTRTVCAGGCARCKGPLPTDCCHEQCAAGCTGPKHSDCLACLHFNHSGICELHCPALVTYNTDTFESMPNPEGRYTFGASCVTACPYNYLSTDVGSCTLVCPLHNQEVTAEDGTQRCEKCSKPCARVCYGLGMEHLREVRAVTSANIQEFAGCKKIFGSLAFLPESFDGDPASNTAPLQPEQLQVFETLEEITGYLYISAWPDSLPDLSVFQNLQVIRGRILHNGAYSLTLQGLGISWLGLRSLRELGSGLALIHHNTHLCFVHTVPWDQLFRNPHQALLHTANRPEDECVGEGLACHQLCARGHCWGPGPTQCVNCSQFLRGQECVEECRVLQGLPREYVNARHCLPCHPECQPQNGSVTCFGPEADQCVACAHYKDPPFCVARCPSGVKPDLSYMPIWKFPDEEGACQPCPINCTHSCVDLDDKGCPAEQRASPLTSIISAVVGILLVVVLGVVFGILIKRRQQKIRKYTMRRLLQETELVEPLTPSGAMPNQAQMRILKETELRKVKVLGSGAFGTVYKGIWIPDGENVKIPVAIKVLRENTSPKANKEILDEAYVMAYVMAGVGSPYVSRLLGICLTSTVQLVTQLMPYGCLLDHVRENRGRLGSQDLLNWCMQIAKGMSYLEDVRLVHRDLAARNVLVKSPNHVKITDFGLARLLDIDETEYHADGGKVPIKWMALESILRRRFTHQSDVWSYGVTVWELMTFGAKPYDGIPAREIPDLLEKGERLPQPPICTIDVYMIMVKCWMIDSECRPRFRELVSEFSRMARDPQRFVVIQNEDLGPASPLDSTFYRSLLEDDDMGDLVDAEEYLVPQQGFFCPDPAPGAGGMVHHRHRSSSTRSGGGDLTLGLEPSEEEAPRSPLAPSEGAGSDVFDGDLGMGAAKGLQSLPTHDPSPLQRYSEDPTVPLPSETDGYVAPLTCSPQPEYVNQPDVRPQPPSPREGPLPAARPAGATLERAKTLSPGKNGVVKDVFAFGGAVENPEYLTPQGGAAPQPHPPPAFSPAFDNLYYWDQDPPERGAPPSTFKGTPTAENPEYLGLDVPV
Chain of EGFR wild type (EGFR WT) (P00533 25-1210): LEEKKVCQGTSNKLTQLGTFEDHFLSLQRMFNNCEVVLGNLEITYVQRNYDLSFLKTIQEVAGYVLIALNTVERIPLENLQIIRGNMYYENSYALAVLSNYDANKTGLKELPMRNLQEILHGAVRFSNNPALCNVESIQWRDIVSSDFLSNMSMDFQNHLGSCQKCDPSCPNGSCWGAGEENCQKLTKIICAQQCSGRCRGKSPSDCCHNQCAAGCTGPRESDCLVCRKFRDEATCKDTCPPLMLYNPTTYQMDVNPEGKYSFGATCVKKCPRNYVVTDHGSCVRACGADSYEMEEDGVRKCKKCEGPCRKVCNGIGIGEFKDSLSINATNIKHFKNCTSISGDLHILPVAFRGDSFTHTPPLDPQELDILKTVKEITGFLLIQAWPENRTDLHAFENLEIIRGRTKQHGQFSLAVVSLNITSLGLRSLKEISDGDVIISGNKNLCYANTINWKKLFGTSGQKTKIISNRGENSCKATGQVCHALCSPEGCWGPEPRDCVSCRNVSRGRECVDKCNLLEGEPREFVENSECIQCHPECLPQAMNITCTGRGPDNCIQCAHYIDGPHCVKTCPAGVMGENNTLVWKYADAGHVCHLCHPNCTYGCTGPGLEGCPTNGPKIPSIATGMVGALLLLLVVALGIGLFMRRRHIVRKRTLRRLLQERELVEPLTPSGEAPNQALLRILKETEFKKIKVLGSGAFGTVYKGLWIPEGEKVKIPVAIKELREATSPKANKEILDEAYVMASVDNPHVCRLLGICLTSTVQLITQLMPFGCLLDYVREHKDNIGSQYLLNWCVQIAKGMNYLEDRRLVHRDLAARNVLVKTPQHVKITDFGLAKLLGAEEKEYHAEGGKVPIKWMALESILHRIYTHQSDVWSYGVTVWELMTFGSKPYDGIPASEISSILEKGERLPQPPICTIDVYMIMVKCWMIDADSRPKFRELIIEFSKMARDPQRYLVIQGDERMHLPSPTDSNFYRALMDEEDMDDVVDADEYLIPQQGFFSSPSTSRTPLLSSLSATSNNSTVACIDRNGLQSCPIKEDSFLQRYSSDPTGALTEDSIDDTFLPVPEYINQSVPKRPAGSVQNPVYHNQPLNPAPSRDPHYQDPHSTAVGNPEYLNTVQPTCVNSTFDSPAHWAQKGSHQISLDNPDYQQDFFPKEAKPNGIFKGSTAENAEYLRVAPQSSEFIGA
Chain of EGFR (P00533 25-1210): as above
Chain of ErbB2 with Exon 20 YVMA insertion (HER2-YVMA) (P04626 other isoform, or with tags, fused parts or gaps ins YVMA behind 775): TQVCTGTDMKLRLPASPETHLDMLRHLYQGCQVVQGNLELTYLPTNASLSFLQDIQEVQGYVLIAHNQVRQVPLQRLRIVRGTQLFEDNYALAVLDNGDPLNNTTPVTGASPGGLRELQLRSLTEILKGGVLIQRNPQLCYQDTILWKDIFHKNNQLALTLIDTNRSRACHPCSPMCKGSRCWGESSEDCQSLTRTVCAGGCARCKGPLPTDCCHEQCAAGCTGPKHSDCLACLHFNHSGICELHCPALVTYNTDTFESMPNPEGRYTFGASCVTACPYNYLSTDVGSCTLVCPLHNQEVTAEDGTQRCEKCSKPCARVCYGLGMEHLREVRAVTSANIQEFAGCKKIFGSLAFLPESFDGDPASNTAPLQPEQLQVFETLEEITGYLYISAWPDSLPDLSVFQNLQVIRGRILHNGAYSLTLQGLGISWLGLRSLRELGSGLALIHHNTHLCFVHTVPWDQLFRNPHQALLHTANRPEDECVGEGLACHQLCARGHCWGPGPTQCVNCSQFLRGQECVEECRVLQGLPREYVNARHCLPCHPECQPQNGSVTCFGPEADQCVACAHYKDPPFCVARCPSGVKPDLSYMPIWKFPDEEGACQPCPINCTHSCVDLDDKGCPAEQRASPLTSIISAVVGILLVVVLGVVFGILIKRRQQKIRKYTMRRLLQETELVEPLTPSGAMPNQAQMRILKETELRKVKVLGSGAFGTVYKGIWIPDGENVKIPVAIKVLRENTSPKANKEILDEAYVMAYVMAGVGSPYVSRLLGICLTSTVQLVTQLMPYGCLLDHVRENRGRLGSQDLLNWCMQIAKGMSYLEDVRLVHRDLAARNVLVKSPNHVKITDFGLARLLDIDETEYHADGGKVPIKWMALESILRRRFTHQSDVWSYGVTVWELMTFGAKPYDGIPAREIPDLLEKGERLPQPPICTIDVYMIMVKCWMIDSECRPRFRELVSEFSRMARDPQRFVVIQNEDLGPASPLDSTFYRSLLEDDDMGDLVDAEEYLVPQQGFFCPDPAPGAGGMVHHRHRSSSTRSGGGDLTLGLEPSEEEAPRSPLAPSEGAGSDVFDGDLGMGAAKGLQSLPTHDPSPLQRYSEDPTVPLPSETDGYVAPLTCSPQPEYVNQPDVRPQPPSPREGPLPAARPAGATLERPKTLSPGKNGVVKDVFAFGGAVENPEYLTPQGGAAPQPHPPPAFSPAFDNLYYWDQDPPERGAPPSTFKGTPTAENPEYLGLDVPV

Row | Structure (SMILES) | pIC50 [1] | pIC50 (ErbB2 WT) | pIC50 (EGFR wild type (EGFR WT)) | pIC50 [2] | pIC50 (EGFR) | IC50 ([1]; Assay 1 IC50 (nM))
1 | Cc1cc(Nc2ncnc3cnc(O[C@H]4C[C@@H](F)CN(C)C4)nc23)ccc1Oc1ccc2c(c1)ncn2C [Example 302] | 7.18 | 6.41 | ≤ 5.30 | 6.85 | ≤ 5.00 | –
2 | CN(c1ncc2ncnc(Nc3ccc(Oc4ccn5ncnc5c4)c(Cl)c3)c2n1)[C@H]1CCOC1 [Example 133, (S)—N8-(4-([1,2,4]triazolo[1,5-a]pyridin-7-yloxy)-3-chlorophenyl)-N2-methyl-N2-(tetrahydrofuran-3-yl)pyrimido[5,4-d]pyrimidine-2,8-diamine] | 7.97 | 7.58 | ≤ 5.30 | 7.26 | 5.24 | –
3 | Cc1cc(Nc2ncnc3cnc(N4C[C@H]5C[C@@H]4CO5)nc23)ccc1Oc1ccn2ncnc2c1 [Example 121, N-(4-([1,2,4]triazolo[1,5-a]pyridin-7-yloxy)-3-methylphenyl)-6-((1R,4R)-2-oxa-5-azabicyclo[2.2.1]heptan-5-yl)pyrimido[5,4-d]pyrimidin-4-amine] | 7.49 | 6.92 | ≤ 5.30 | 6.18 | ≤ 5.00 | –
4 | Cc1cc(Nc2ncnc3cnc(O[C@@H]4CN(C)C[C@@H]4F)nc23)ccc1Oc1ccc2c(c1)ncn2C [Example 87, 6-(((3R,4S)-4-fluoro-1-methylpyrrolidin-3-yl)oxy)-N-(3-methyl-4-((1-methyl-1H-benzo[d]imidazol-5-yl)oxy)phenyl)pyrimido[5,4-d]pyrimidin-4-amine] | 7.16 | 6.46 | ≤ 5.30 | 7.02 | ≤ 5.00 | –
5 | CCON1CCN(c2ncc3ncnc(Nc4ccc(Oc5ccc6c(c5)ncn6C)c(C)c4)c3n2)CC1 [Example 483] | 7.12 | 6.58 | ≤ 5.30 | 7.23 | ≤ 5.00 | –
6 | Cc1cc(Nc2ncnc3cnc(N(CC(F)F)CC(F)F)nc23)ccc1Oc1ccc2c(c1)ncn2C [Example 344] | 6.79 | 6.17 | ≤ 5.30 | 6.89 | ≤ 5.00 | –
7 | Cc1cc(Nc2ncnc3cnc(N4CC[C@](C)(O)C4)nc23)ccc1Oc1ccn2ncnc2c1 [Example 365] | 7.42 | 7.09 | ≤ 5.30 | 6.88 | 5.12 | –
8 | Cc1cc(Nc2ncnc3cnc(N4CC(C(C)(C)O)C4)nc23)ccc1Oc1ccn2ncnc2c1 [Example 343] | 6.95 | 6.92 | ≤ 5.30 | 5.83 | – | –
9 | CON1CCC(Nc2ncc3ncnc(Nc4ccc(Oc5ccc6c(c5)ncn6C)c(C)c4)c3n2)C1 (stereo not shown) [Example 220, N2-(1-methoxpyrrolidin-3-yl)-N8-(3-methyl-4-((1-methyl-1H-benzo[d]imidazol-5-yl)oxy)phenyl)pyrimido[5,4-d]pyrimidine-2,8-diamine] | 8.03 | 7.92 | ≤ 5.30 | 8.10 | 5.82 | –
10 | Cc1cc(Nc2ncnc3cnc(N(C)CC(O)C(F)(F)F)nc23)ccc1Oc1ccc2c(c1)ncn2C (stereo not shown) [Example 188, 1,1,1-trifluoro-3-(methyl(8-((3-methyl-4-((1-methyl-1H-benzo[d]imidazol-5-yl)oxy)phenyl)amino)pyrimido[5,4-d]pyrimidin-2-yl)amino)propan-2-ol] | 7.56 | 7.57 | ≤ 5.30 | 7.69 | ≤ 5.00 | –
11 | C[C@@H]1CN(c2ncc3ncnc(Nc4ccc(Oc5ccc6c(c5)ncn6C)c(Cl)c4)c3n2)CCN1C [Example 439] | – | 7.15 | ≤ 5.30 | 7.34 | – | 38.7 nM
12 | Cc1c(Oc2ccn3ncnc3c2)ccc(Nc2ncnc3cnc(N4C[C@@H]5C[C@H]4CO5)nc23)c1F [Example 313] | – | – | ≤ 5.30 | 5.75 | 5.38 | –
13 | CCOc1ncc2ncnc(Nc3ccc(Oc4ccc5c(c4)ncn5C)c(C)c3)c2n1 [Example 13, 6-ethoxy-N-(3-methyl-4-((1-methyl-1H-benzo[d]imidazol-5-yl)oxy)phenyl)pyrimido[5,4-d]pyrimidin-4-amine] | 7.45 | – | ≤ 5.30 | 6.53 | ≤ 5.00 | –
14 | Cc1cc(Nc2ncnc3cnc(N4C[C@H]5CC[C@@H]4CO5)nc23)ccc1Oc1ccn2ncnc2c1 [Example 127, N-(4-([1,2,4]triazolo[1,5-a]pyridin-7-yloxy)-3-methylphenyl)-6-((1R,4R)-2-oxa-5-azabicyclo[2.2.2]octan-5-yl)pyrimido[5,4-d]pyrimidin-4-amine] | 7.39 | – | ≤ 5.30 | 6.82 | ≤ 5.00 | –
